Assay results reported in patent US20240398812A1 (Caraway Therapeutics, Inc., priority 2021, published 2024).

Tests used:
Format in all cases: cell-based
[1] = target: human TRPML1 (Homo sapiens, UniProt Q9GZU1); assay: Fluorescent TRPML1 assay (Fluo4-AM calcium fluorescence, HEK-293 Trex cells)
Outline: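 Agonist EC50 from non-linear regression of percent activity versus on-plate controls, calcium signal read at 480/540 nm. Compounds spanned 6 nM–20 μM final in triplicate. Cells: doxycycline-induced HEK-293 Trex with cell-surface human TRPML1 mutant, Fluo4-AM loaded, in Ringer's containing 10 mM calcium.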

[2] = target: T1, TRPML2 (Homo sapiens, UniProt Q8IZK6); assay: Fluorescent TRPML2 assay (as for TRPML1); settings: Table 3, compounds 201-283
T1 construct: expressed in transfected cells
T1 sequence (Q8IZK6 1-566): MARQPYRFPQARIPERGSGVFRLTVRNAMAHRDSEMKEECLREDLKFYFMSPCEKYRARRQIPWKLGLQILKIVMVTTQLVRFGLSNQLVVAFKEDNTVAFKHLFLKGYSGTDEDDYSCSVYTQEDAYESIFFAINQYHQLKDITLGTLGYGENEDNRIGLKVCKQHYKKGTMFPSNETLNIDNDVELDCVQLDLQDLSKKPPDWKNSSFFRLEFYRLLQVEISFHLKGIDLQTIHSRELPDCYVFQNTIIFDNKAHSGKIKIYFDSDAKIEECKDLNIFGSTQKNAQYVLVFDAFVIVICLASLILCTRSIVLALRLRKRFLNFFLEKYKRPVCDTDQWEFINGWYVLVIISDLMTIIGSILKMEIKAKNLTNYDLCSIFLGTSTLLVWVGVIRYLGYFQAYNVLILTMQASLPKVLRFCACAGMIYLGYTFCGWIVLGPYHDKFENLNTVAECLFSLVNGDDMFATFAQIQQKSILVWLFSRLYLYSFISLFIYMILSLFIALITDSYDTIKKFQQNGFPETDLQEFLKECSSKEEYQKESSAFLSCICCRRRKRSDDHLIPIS
Method: HEK-293 Trex cells were stably transfected with a construct consisting of the human coding sequence for TRPML1 cloned into the tet-inducible plasmid pCDNA5 T/O. Mutations were introduced into the TRPML1 sequence to facilitate expression on the cell surface (Silvia Vergarajauregui, Rosa Puertollano Traffic. 2006 March; 7 (3): 337-353). Briefly, the cells are cultured in 150 mm round tissue culture dishes containing 20 mL of media. The day before the assay the cells are rinsed with DPBS —Ca—Mg and then treated briefly with Trypsin-EDTA. The Trypsin-EDTA is diluted with growth media, and cells are counted. 38×10^6 cells are re-plated into 150 mm round tissue culture dishes in media containing 0.5 ug/mL doxycycline to induce expression of hTRPML1.
The day of the experiment cells are lifted from the plates as above and collected by centrifugation. The cells are then suspended in dye loading buffer consisting of Ringer's solution supplemented with 0.1% Pluronic Acid and 1 micromolar Fluo4-AM dye. Cells are loaded for ˜60 minutes in the dark with occasional mixing. The cells are collected by centrifugation, the loading media aspirated, and the cells resuspended in 25 mL Ringer's solution and incubated ˜60 minutes in the dark. The cells are again collected by centrifugation, rinsed in Ringer's Solution and resuspended to 0.2×10^6 cells/mL in modified Ringer's solution containing 10 mM calcium.
Compounds are dissolved to a concentration of 10 millimolar with DMSO. Compound plates are created by dispensing compounds into 384 well black wall clear bottom plates (Greiner 781091). Positive and negative controls are included on each plate. Typically, different amounts of each compound are tested ranging from 100 nanoMoles (20 micromolar final concentration) decreasing in half-log steps to 31 picoMoles (6 nanomolar final concentration). Each concentration is typically tested in triplicate.
50 microliters of dye-loaded cells are dispensed into each well of the compound assay plate created above. The fluorescence in each well is then determined with an excitation wavelength of 480 nm and an emission wavelength of 540 nm using either a Molecular Devices SpectraMax multimode plate reader or a Hamamatsu FDSS/uCell plate imager.
The resulting fluorescence for each well is exported as an ascii file and loaded into our LIMS for analysis. The percent activity of each compound at each concentration is determined by comparison to the positive and negative control wells included in each plate.
Assays for TRPML2 and TRPML3 were performed as above for TRPML1, by substituting the appropriate TRPML2 or TRPML3 subtype for the TRPML1.
EC50 values were calculated using a non-linear regression of Prism. In the table, “A” indicates an EC50 of less than 100 nM, “B” indicates an EC50 range from 100 nM to 500 nM; “C” indicates an EC50 range from 500 nM to 2 μM; and “D” indicates an EC50 greater than 2 μM.

[3] = target: T2, TRPML3 (Homo sapiens, UniProt Q8TDD5); assay: Fluorescent TRPML3 assay (as for TRPML1)
T2 construct: expressed in transfected cells
T2 sequence (Q8TDD5 1-553): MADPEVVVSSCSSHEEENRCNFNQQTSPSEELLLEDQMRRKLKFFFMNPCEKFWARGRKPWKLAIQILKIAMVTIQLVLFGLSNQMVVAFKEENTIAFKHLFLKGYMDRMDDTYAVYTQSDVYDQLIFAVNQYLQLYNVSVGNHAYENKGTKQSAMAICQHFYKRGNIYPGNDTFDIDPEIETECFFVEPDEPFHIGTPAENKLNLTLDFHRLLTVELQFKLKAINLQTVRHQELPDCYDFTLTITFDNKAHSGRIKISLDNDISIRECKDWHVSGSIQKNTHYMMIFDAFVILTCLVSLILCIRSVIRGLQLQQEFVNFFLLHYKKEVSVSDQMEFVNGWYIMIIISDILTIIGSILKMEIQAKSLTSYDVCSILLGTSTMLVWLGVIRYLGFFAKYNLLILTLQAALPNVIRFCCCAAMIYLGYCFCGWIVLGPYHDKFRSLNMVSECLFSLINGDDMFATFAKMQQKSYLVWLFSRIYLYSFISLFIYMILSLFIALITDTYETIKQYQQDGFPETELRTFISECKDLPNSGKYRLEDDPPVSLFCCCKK
Outline: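 EC50 came from non-linear regression of percent activity, set against on-plate positive and negative controls, using Fluo4 fluorescence (ex 480, em 540 nm). Compounds ran in triplicate from 6 nM to 20 µM final in half-log steps. Doxycycline-induced (0.5 ug/mL) HEK-293 Trex cells expressing surface-directed mutant channel were in 10 mM calcium Ringer's.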

Chain of human TRPML1 (Q9GZU1 whole entry L15A/L16A/L577A/L578A, form open): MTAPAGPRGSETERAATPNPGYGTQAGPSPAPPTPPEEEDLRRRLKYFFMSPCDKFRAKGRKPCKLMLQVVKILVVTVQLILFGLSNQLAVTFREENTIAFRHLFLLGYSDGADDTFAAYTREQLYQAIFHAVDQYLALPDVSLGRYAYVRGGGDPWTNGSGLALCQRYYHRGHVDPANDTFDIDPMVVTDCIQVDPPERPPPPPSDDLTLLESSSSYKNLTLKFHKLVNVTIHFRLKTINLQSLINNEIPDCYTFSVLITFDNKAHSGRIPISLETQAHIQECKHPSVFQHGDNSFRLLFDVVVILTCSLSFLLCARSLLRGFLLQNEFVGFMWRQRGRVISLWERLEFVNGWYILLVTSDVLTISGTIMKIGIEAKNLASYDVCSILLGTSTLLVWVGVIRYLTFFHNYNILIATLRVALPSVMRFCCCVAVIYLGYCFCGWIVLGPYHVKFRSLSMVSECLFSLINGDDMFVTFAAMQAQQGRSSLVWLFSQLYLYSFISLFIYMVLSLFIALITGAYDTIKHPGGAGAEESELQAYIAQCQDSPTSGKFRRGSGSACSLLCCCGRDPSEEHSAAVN

EC50 ([1]; Table 3, compounds 201-283)	EC50 [2]	EC50 ([3]; Table 3, compounds 201-283)	EC50 ([1]; Table 3, compounds 101-177)	EC50 ([3]; Table 3, compounds 101-177)	SMILES
0.1 to 0.5 µM	> 2 µM	0.5 to 2 µM			C[C@@H]1CN(c2ncnc3c2c(C2CCC2)cn3-c2cccc(F)c2)[C@@H](C)CN1C(=O)C(C)(C)C [Compound 250, 1-((2R,5S)-4-(5-cyclobutyl-7-(3-fluorophenyl)-7H-pyrrolo[2,3-d]pyrimidin-4-yl)-2,5-dimethylpiperazin-1-yl)-2,2-dimethylpropan-1-one]
	0.1 to 0.5 µM	< 0.1 µM			[2H]C([2H])([2H])C(C(=O)N1C[C@H](C)N(c2ncnc3c2c(-c2ccccc2F)cn3-c2cc(C#N)ccn2)C[C@H]1C)C([2H])([2H])[2H] (single isomer, unassigned) [Compound 234]
	< 0.1 µM	< 0.1 µM			[2H]C([2H])([2H])C([2H])(C(=O)N1C[C@H](C)N(c2ncnc3c2c(-c2ccccc2F)cn3-c2cc(C#N)ccn2)C[C@H]1C)C([2H])([2H])[2H] (single isomer, unassigned) [Compound 233]
	0.5 to 2 µM	0.1 to 0.5 µM			[2H]C([2H])([2H])[C@@H]1CN(c2ncnc3c2c(-c2ccccc2F)cn3-c2cc(C#N)ccn2)[C@@H](C)CN1C(=O)C(C)C (single isomer, unassigned) [Compound 281]
< 0.1 µM		0.1 to 0.5 µM			C[C@@H]1CN(c2ncnc3c2c(N2CCC2)cn3-c2cc(F)cc(F)c2)[C@@H](C)CN1C(=O)C(C)(C)C [Compound 217, 1-((2R,5S)-4-(5-(azetidin-1-yl)-7-(3,5 difluorophenyl)-7H-pyrrolo[2,3-d]pyrimidin-4-yl)2,5-dimethylpiperazin-1-yl)-2,2-dimethylpropan-1-one]
< 0.1 µM		0.5 to 2 µM			Cc1cn(-c2cc(F)ccn2)c2ncnc(N3C[C@@H](C)N(C(=O)C(C)(C)C)C[C@@H]3C)c12 [Compound 244, 1-((2R,5S)-4-(7-(4-fluoropyridin-2-yl)-5-methyl-7H-pyrrolo[2,3-d]pyrimidin-4-yl)-2,5-dimethylpiperazin-1-yl)-2,2-dimethylpropan-1-one]
< 0.1 µM		0.1 to 0.5 µM			C[C@@H]1CN(c2ncnc3c2c(C(F)(F)F)cn3-c2cccc(C#N)c2)[C@@H](C)CN1C(=O)C(C)(C)C [Compound 222, 3-(4-((2S,5R)-2,5-dimethyl-4-pivaloylpiperazin-1-yl)-5-(trifluoromethyl)-7H-pyrrolo[2,3-d]pyrimidin-7-yl)benzonitrile]
			0.1 to 0.5 µM	0.5 to 2 µM	CC(C)C(=O)N1CCN(c2ncnc3c2c(-c2ccccc2F)cn3-c2cc(C#N)n(C)c2)[C@@H](C)C1 [Compound 157, (S)-4-(5-(2-fluorophenyl)-4-(4-isobutyryl-2-methylpiperazin-1-yl)-7H-pyrrolo[2,3-d]pyrimidin-7-yl)-1-methyl-1H-pyrrole-2-carbonitrile]
			0.1 to 0.5 µM	< 0.1 µM	CC(C)C(=O)N1CCN(c2ncnc3c2c(-c2ccccc2F)cn3-c2cc(C#N)ncn2)[C@@H](C)C1 [Compound 152, (S)-6-(5-(2-fluorophenyl)-4-(4-isobutyryl-2-methylpiperazin-1-yl)-7H-pyrrolo[2,3-d]pyrimidin-7-yl)pyrimidine-4-carbonitrile]
			0.5 to 2 µM	0.5 to 2 µM	CC(C)C(=O)N1CCN(c2ncnc3c2c(C2CCC2)cn3-c2cc(C#N)ccn2)[C@@H](C)C1 [Compound 150, (S)-2-(5-cyclobutyl-4-(4-isobutyryl-2-methylpiperazin-1-yl)-7H-pyrrolo[2,3-d]pyrimidin-7-yl)isonicotinonitrile]
			0.5 to 2 µM	0.5 to 2 µM	CCN(CC)c1cn(-c2cccc(Cl)c2)c2ncnc(N3CCN(C(=O)C(C)C)C[C@@H]3C)c12 [Compound 147, (S)-1-(4-(7-(3-chlorophenyl)-5-(diethylamino)-7H-pyrrolo[2,3-d]pyrimidin-4-yl)-3-methylpiperazin-1-yl)-2-methylpropan-1-one]
< 0.1 µM		0.1 to 0.5 µM			COC1(C(=O)N2CCN(c3ncnc4c3c(-c3ccccc3F)cn4-c3cc(C#N)ccn3)[C@@H](C)C2)CC1 [Compound 243, (S)-2-(5-(2-fluorophenyl)-4-(4-(1-methoxycyclopropane-1-carbonyl)-2-methylpiperazin-1-yl)-7H-pyrrolo[2,3-d]pyrimidin-7-yl)isonicotinonitrile]
			0.5 to 2 µM	0.5 to 2 µM	CC(C)C(=O)N1CCN(c2ncnc3c2c(-c2ccccn2)cn3-c2cc(C#N)ccn2)C[C@H]1C [Compound 132, (R)-2-(4-(4-isobutyryl-3-methylpiperazin-1-yl)-5-(pyridin-2-yl)-7H-pyrrolo[2,3-d]pyrimidin-7-yl)isonicotinonitrile]
			< 0.1 µM	< 0.1 µM	C[C@H]1CN(C(=O)C2(C)CC2)CCN1c1ncnc2c1c(-c1ccccc1F)cn2-c1cc(C#N)ccn1 [Compound 112, (S)-2-(5-(2-fluorophenyl)-4-(2-methyl-4-(1-methylcyclopropane-1-carbonyl)piperazin-1-yl)-7H-pyrrolo[2,3-d]pyrimidin-7-yl)isonicotinonitrile]
> 2 µM		> 2 µM			CC(C)C(=O)N1C[C@H](C)N(c2ncnc3c2c(C2CCC2)cn3-c2cccc(F)c2)C[C@H]1C [Compound 248, 1-((2R,5S)-4-(5-cyclobutyl-7-(3-fluorophenyl)-7H-pyrrolo[2,3-d]pyrimidin-4-yl)-2,5-dimethylpiperazin-1-yl)-2-methylpropan-1-one]
			> 2 µM	0.5 to 2 µM	CC(C)C(=O)N1CC2(CCN(c3ncnc4c3c(-c3ccccc3F)cn4-c3cc(C#N)ccn3)C2)C1 [Compound 101, 2-(5-(2-fluorophenyl)-4-(2-isobutyryl-2,6-diazaspiro[3.4]octan-6-yl)-7H-pyrrolo[2,3-d]pyrimidin-7-yl)isonicotinonitrile]
